According to article PMC8626775, “Anti-schistosomal activities of quinoxaline-containing compounds: From hit identification to lead optimisation” (European Journal of Medicinal Chemistry, 2021):
Where “and” joins values, the source holds several entries; their conditions need not be identical. Equal values may be shown once. Entries after “also recorded” stand apart in the source; their conditions may differ. Read-outs that look alike come from different tables or passages of the source.

Experiments:
[1] = test system: Adult S. haematobium worms; assay: In vitro screening of S. haematobium adults at 100 nM (WormAssay motility, descriptors, severity score); format: cell-based, Schistosoma haematobium; details: for Effect on S. haematobium adult worms: 5, 24, 48 and 72 h; for SEVERITY SCORES 5 h / SEVERITY SCORES 24 h / SEVERITY SCORES 48 h / SEVERITY SCORES 72 h: max = 4, one line per replicate
Procedure: For each species, parasite recovery involved reverse perfusion of the hepatic portal and mesenteric system using DMEM (Fisher Scientific). Parasites were washed six times with Basch 169 medium supplemented with 100 U/ml penicillin and 100 μg/ml streptomycin before manually distributing approximately 5 males per well (on occasion 1 or 2 females might also be present) of a 24-well plate (Corning Costar 3524). […] The next morning, a final concentration of 100 nM compound (in 1 μL DMSO) was added to each well and the final volume made up to 2 ml with Basch 169 medium supplemented with antibiotics and FBS. Each compound was tested in triplicate (except for some instances tested in duplicate). […] The phenotypic characterisation of compound effects focused on male worms due to the greater range of their motility characteristics that include flexing, bending, stretching, sucker walking and adherence, compared to the more sedentary female worms. In addition to descriptors, WormAssay, as adapted for the schistosome, was used to measure average worm motility per well [72, 73].

S. mansoni miracidia = S. mansoni miracidia to sporocyst transformation screen, 48 h; format: cell-based, Schistosoma mansoni
Excerpt: Following hepatic portal vein perfusion of TO mice, experimentally infected 7 weeks previously, the mouse livers were collected to isolate parasite eggs. Briefly, the infected tissues were homogenised in double saline solution (1.7% w/v NaCl) using a Waring blender. The homogenates were passed through a 0.45 μm filter to retain egg material and the resulting filtered solution was collected in a volumetric flask. Miracidia hatching was induced by exposure of eggs to light in artificial river water (e.g. Lepple water). The resulting miracidial suspension was collected, washed with Chernin's balanced salt solution (CBSS) and enumerated prior to being used for in vitro miracidia to sporocyst screens, as previously described. […] Each treatment was set up in duplicate and parasites cultured in CBSS with 1% DMSO were set up as negative controls. After 48 h incubation at 26 °C, dead, fully transformed and partially transformed miracidia were enumerated as previously described [[18],[64], [65], [66]].

[2] = test system: adult S. japonicum male worms; assay: In vitro screening of S. japonicum adults at 100 nM (WormAssay motility, descriptors, severity score); format: cell-based, Schistosoma japonicum; parameters: key to DESCRIPTORS 48 h / DESCRIPTORS 72 h: Dark = dark; S = Slow; S-uncoord = uncoordinated slow movements; O-uncoord = uncoordinated fast movements; On sides = male worms are not adhering to dish with ventral sucker; Shrunk = worms are not flexing and are smaller than usual; Teg damage = outer surface (tegument of the worm) is damaged; Deg= degenerating; D = Dead; details: for Effect on S. japonicum adult male worms: 5, 24, 48 and 72 h; for SEVERITY SCORES 5 h / SEVERITY SCORES 24 h / SEVERITY SCORES 48 h / SEVERITY SCORES 72 h: max = 4, one line per replicate
In short: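 Adult worms recovered by perfusion, about 5 males per well in Basch 169 medium with antibiotics and FBS. Exposed to 100 nM compound (DMSO), in triplicate or sometimes duplicate. Male phenotypes scored with descriptors and severity score, and average motility per well measured by WormAssay.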

S. mansoni adult worms = assay: S. mansoni adult worm motility screen (WormassayGP2), 72 h; format: cell-based, Schistosoma mansoni; details: for EC50: Schistosoma mansoni
In short: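 Seven-week adult S. mansoni worms, perfused from infected mice, were exposed in duplicate (1–3 pairs/well) to […] compound in 0.5% DMSO for 72 h at 37 °C, 5% CO2. Motility was scored by image-based WormassayGP2, and eggs were counted afterwards.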

S. mansoni schistosomula = S. mansoni schistosomula high-throughput phenotype and motility screen (Roboworm), 72 h; format: cell-based, Schistosoma mansoni; details: for EC50: Schistosoma mansoni
In short: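 Newly transformed schistosomula (S. mansoni PR-1, mechanically transformed cercariae), 120 per well, exposed to compounds at a single concentration or two-fold titrations for 72 h at 37 °C, 5% CO2.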

[3] = S. japonicum, one line per replicate
[4] = Table 4, Series A, read-out: Anti-schistosomal activity EC50 Adult (nM) Motility
[5] = Table 2, 72 h, titrations 0.0095–5 μM, WormassayGP2, read-out: Activity on adult worms (EC50, μM - 72 h) Motility
[6] = 72 h, Table 2, average of phenotype and motility EC50, 72 h, read-out: Activity on schistosomula (EC50, μM - 72 h) Average
[7] = 72 h, Table 2, motility, 72 h, three replicate titrations (0.313–10 μM), read-out: Activity on schistosomula (EC50, μM - 72 h) M
[8] = 72 h, Table 2, phenotype, 72 h, three replicate titrations (0.313–10 μM), read-out: Activity on schistosomula (EC50, μM - 72 h) P
[9] = Table 4, Series A, read-out: Anti-schistosomal activity EC50 Schistosomula (μM) Motility
[10] = Table 4, Series A, read-out: Anti-schistosomal activity EC50 Schistosomula (μM) Phenotype

SMILES: O=[N+]([O-])c1ccc2nc(Nc3ccc(Cl)c(Cl)c3)c(Nc3ccc(Cl)c(Cl)c3)nc2c1 [Compound 22, N^2, N^3-bis(3,4-dichlorophenyl)-6-nitroquinoxaline-2,3-diamine]
- Effect on S. haematobium adult worms [1]: mainly inactive
- SEVERITY SCORES 5 h ([1]; S. haematobium): 0
- SEVERITY SCORES 24 h ([1]; S. haematobium, 24 h): 0
- SEVERITY SCORES 48 h ([1]; S. haematobium, 48 h): 0
- SEVERITY SCORES 72 h ([1]; S. haematobium, 72 h): 0
- Effect on miracidia at 5 μM (S. mansoni miracidia; 5 μM in 1% DMSO): not lethal
- Reduction of miracidia to sporocyst transformation at 5 μM compared to DMSO (S. mansoni miracidia; 5 μM, 48 h): 50%
- Miracidial transformation inhibition at 2 and 0.5 μM (S. mansoni miracidia; 2 and 0.5 μM, 48 h): about 20%
- Effect on miracidia at 10 and 50 μM (S. mansoni miracidia; 10 and 50 μM, 48 h): lethal
- Effect on S. japonicum adult male worms [2]: decreased motility starting at 48 h
- SEVERITY SCORES 5 h ([2]; S. japonicum): 0
- SEVERITY SCORES 24 h ([2]; S. japonicum, 24 h): 0
- SEVERITY SCORES 48 h ([2]; S. japonicum): 1 and 2
- DESCRIPTORS 48 h [2, 3]: S and S, on sides
- SEVERITY SCORES 72 h ([2]; S. japonicum): 2
- DESCRIPTORS 72 h [2, 3]: S+, on sides
- Effect on adult worm motility at 3.15 μM (S. mansoni adult worms; 3.15 μM, lowest concentration tested): complete cessation of worm mobility; also recorded: completely inhibited
- Effect on adult worm motility at 12.5 and 6.25 μM (S. mansoni adult worms; 12.5 and 6.25 μM): particularly active
- EC50 (S. mansoni adult worms; Table 3, read-out: Anti-schistosomal activity EC50 (μM) Adult Motility): 0.085 µM
- EC50 (S. mansoni adult worms; [4]): 0.0847 µM
- EC50 (S. mansoni adult worms; [5]): 0.0847 µM
- EC50 (S. mansoni adult worms; commercially sourced batch (c22), Fig. S7, read-out: EC50 on adult worms, original commercially sourced compound): 0.0685 µM
- EC50 (S. mansoni adult worms; re-synthesised batch (rs22), Fig. S7, read-out: EC50 on adult worms, re-synthesised compound): 0.0731 µM
- Activity on schistosomula in the primary screen at 10 μM (S. mansoni schistosomula; 10 μM, 72 h): retained activity
- EC50 (S. mansoni schistosomula; 72 h, Table 1, 72 h, two dose response titrations (0.313–10 μM), 95% CI in brackets, read-out: Activity on schistosomula (EC50, μM - 72 h) Motility): 0.38 µM
- EC50 (S. mansoni schistosomula; 72 h, Table 1, 72 h, two dose response titrations (0.313–10 μM), 95% CI in brackets, read-out: Activity on schistosomula (EC50, μM - 72 h) Phenotype): 0.4 µM
- EC50 (S. mansoni schistosomula; 72 h, Table 1, mean of phenotype and motility EC50, 72 h, read-out: Activity on schistosomula (EC50, μM - 72 h) Average): 0.39 µM
- EC50 (S. mansoni schistosomula; [6]): 0.44 µM
- EC50 (S. mansoni schistosomula; [7]): 0.42 µM
- EC50 (S. mansoni schistosomula; [8]): 0.47 µM
- EC50 (S. mansoni schistosomula; Table 3, read-out: Anti-schistosomal activity EC50 (μM) Schistosomula Motility): 0.42 µM
- EC50 (S. mansoni schistosomula; Table 3, read-out: Anti-schistosomal activity EC50 (μM) Schistosomula Phenotype): 0.47 µM
- EC50 (S. mansoni schistosomula; [9]): 0.42 µM
- EC50 (S. mansoni schistosomula; [10]): 0.47 µM
- EC50 (S. mansoni schistosomula; Table 5, Series C, read-out: Anti-schistosomal activity EC50 Schistosomula (μM) Motility): 0.42 µM
- EC50 (S. mansoni schistosomula; Table 5, Series C, read-out: Anti-schistosomal activity EC50 Schistosomula (μM) Phenotype): 0.47 µM
- EC50 (S. mansoni schistosomula; commercially sourced batch (c22), Fig. S7, read-out: EC50 on schistosomula, original commercially sourced compound): 0.61 µM
- EC50 (S. mansoni schistosomula; re-synthesised batch (rs22), Fig. S7, read-out: EC50 on schistosomula, re-synthesised compound): 0.51 µM

SMILES: O=[N+]([O-])c1ccc2nc(Nc3cc(C(F)(F)F)ccc3F)c(Nc3cc(C(F)(F)F)ccc3F)nc2c1 [Compound 33, N2, N3-bis(2-fluoro-5-(trifluoromethyl)phenyl)-6-nitroquinoxaline-2,3-diamine]
- Onset time on S. haematobium [1]: ≤ 24 h
- Effect on S. haematobium adult worms [1]: best activity
- SEVERITY SCORES 5 h ([1]; S. haematobium): 0
- SEVERITY SCORES 24 h ([1]; S. haematobium, 24 h): 2
- DESCRIPTORS 24 h ([1]; S. haematobium, 24 h, one line per replicate): S, on sides; also recorded: S, onsides
- SEVERITY SCORES 48 h ([1]; S. haematobium, 48 h): 3
- DESCRIPTORS 48 h ([1]; S. haematobium, 48 h, one line per replicate): S, dark on sides
- SEVERITY SCORES 72 h ([1]; S. haematobium, 72 h): 4
- DESCRIPTORS 72 h ([1]; S. haematobium, 72 h, one line per replicate): S, deg, on sides
- Effect on miracidia at 0.5 μM (S. mansoni miracidia; 0.5 μM, lowest concentration tested): parasite death
- Onset time on S. japonicum [2]: ≤ 24 h
- Effect on S. japonicum adult male worms [2]: essentially lethal
- SEVERITY SCORES 5 h ([2]; S. japonicum): 0
- SEVERITY SCORES 24 h ([2]; S. japonicum, 24 h): 0
- DESCRIPTORS 24 h ([2]; S. japonicum, 24 h, one line per replicate): Dark, S, on sides
- SEVERITY SCORES 48 h ([2]; S. japonicum): 4
- DESCRIPTORS 48 h [2, 3]: Dying, deg
- SEVERITY SCORES 72 h ([2]; S. japonicum): 4
- DESCRIPTORS 72 h [2, 3]: Dying, D
- EC50 (S. mansoni adult worms; [4]): 0.0056 µM
- EC50 (S. mansoni adult worms; [5]): 0.0056 µM
- EC50 (S. mansoni schistosomula; [6]): 0.15 µM
- EC50 (S. mansoni schistosomula; [7]): 0.15 µM
- EC50 (S. mansoni schistosomula; [8]): 0.15 µM
- EC50 (S. mansoni schistosomula; 72 h, Table S7, motility, 95% CI in brackets, read-out: Activity on schistosomula (EC50, µM - 72 h) (95% CI) M): 0.15 µM
- EC50 (S. mansoni schistosomula; 72 h, Table S7, phenotype, 95% CI in brackets, read-out: Activity on schistosomula (EC50, µM - 72 h) (95% CI) P): 0.15 µM
- EC50 (S. mansoni schistosomula; [9]): 0.15 µM
- EC50 (S. mansoni schistosomula; [10]): 0.15 µM
